Reference: patent publication US20060134017A1, “Oral treatment compositions containing an anti-adhesion agent, antibacterial agent and incompatible compound” (Colgate-Palmolive Company, priority 2004, published 2006)

Assays:
[1] = generic protease activity assay (Panvera); type: biochemical; conditions: neat powder, 40° C., neutral pH; +/-3
Description: The activity of proteases was evaluated using generic protease assay from Panvera at 40° C. and neutral pH. The activity was assessed relative to papain on an equal weight basis of neat powder samples. Krillase protease enzymes are a mixture of eight different proteases; thus, the activity of any one of the eight was not discernable by the present assay. The assay aided in determining dose for the dose response studies. In clinical formulations, enzymes were dosed based on an equal weight basis. Table 2 gives the relative activity of neat enzymes.

[2] = test system: oral bacteria culture on saliva-coated hydropxyapatite (SHAP) disks; assay: Artificial Mouth anti-attachment efficacy model (chemostat flow cell, SHAP disks); type: cell-based; conditions: for anti-adhesion efficacy, ranking of in vitro results: toothpaste formulas; for anti-adhesion efficacy relative to matching negative control paste (statistical analysis): toothpaste with 0.226 weight percent protease, ABS610 after 24 hours
Text: To test the efficacy of the actives in toothpaste formulas, the Artificial Mouth model was utilized. This is generally described in Herles, S., S. Olsen, et al. (1994). “Chemostat flow cell system: an in vitro model for the evaluation of antiplaque agents.” J Dent Res 73(11): 1748-55. The Artificial Mouth model is a flow system that simulates the human mouth. Saliva-coated hydropxyapatite (SHAP) disks served as the artificial teeth, and a bacteria culture consisting of the main oral bacteria in humans flowed through the system at a speed consistent with the in vivo human saliva. Eight disks for each treatment were then placed in the chemostat flow cell and oral bacteria culture was allowed to flow through the disks overnight (20-24 hours) to see if actives coated on the disk surfaces would prevent bio-film formation. After 24 hours the SHAP disks were removed and amount of bacteria quantified. The ABS610 of the solutions were then measured and analyzed. […] From this value, the percentage anti-adhesion effectiveness of the pastes is evaluated relative to a matching negative control. Two concentrations of protease were tested for each of the three protease; namely. 0.226 weight percent and 0.065 weight percent.

Molecule	Activity by protease assay [1]	anti-adhesion efficacy, ranking of in vitro results [2]	anti-adhesion efficacy relative to matching negative control paste (statistical analysis) [2]
Ficin	23 CPU/g	better then the papain	showed efficacy
Papain: cysteine protease enzyme obtained from the fruit and leaves of Carica papaya (EDC papain) (protein, UniProt P00784 134-345, looked up) Papain: IPEYVDWRQKGAVTPVKNQGSCGSCWAFSAVVTIEGIIKIRTGNLNEYSEQELLDCDRRSYGCNGGYPWSALQLVAQYGIHYRNTYPYEGVQRYCRSREKGPYAAKTDGVRQVQPYNEGALLYSIANQPVSVVLEAAGKDFQLYRGGIFVGPCGNKVDHAVAAVGYGPNYILIKNSWGTGWGENGYIRIKRGTGNSYGVCGLYTSSFYPVKN	25 CPU/g	better then the matching placebo paste	showed efficacy
